Assay results: patent US20180284123A1, “BARCODED RAPID ASSAY PLATFORM USEFUL FOR EFFICIENT ANALYSIS OF CANDIDATE MOLECULES AND METHODS OF MAKING AND USING THE PLATFORM” (California Institute of Technology, priority 2017, published 2018)
Numbered stars: 1 amine (or outer) side, 2 acyl side, 3 side chain; on linkers, the order of the positions; unused ones are H or OH. Bridge positions count the residues as written; N and C are the ends. Square brackets hold non-standard residues; d marks the D form. Triazole bridges read from a SMILES are 1,4-linked. Peptide text beside a SMILES is read from it. * marks the point of attachment. ξ: configuration not given here. Biotin = O=C1N[C@H]2[C@H](CS[C@H]2CCCCC(=O)*)N1; Lys(N3) = [N-]=[N+]=NCCCC[C@H](N)C(=O)O; ξLys(N3) = [N-]=[N+]=NCCCCC(N)C(=O)O; Ethylenediamine = C(CN[*:2])N[*:1]; PEG5 = NCCOCCOCCOCCOCCOCCC(=O)O; Pra = C#CC[C@H](N)C(=O)O

Assays:
KRAS [1] = molecular target: T1, KRAS (Homo sapiens, UniProt P01116); test: GTPase Glo assay of intrinsic KRas GTPase activity; type: biochemical
T1 construct: His6-tagged human KRas Isoform 4B (residues 1-169); His6; made in house; host or cells: E. coli BL21(DE3), PQE80 vector
Method: The intrinsic GTPase activity of WT KRas protein was measured using the GTPase-Glo Assay Kit (#V7681) from Promega Corporation (Madison, Wis.) on opaque white 96-well plates (#6005290) from Perkin Elmer Life Sciences (Waltham, Mass.). Luminescence was recorded on the Flexstation 3 plate reader used for multi-well ELISAs.
KRas inhibition assays were carried out using a GTPase Glo Assay kit from Promega. Each candidate inhibitor PCC was initially tested by combining a concentration series of the ligand with 10 μM KRas protein in an opaque white 96-well plate and incubated with 5 μM 5′-guanosine triphosphate (GTP) for two hours. The remaining GTP was […]. Chemiluminescence was measured using a Flexstation 3 plate reader (All wavelengths mode, 500 ms integration), and plotted using Graphpad Prism 7. […] All measurements were done in triplicate.
The GTPase assays were run in triplicate on a multi-well plate using the GTPase Glo Assay kit from Promega with 10 μM KRas protein and varying concentrations of ligand (1 μM to 100 μM L1a, L8 and 2.5 μM to 250 μM L2). All reagents were warmed to RT before use. A single opaque white 96-well plate was charged with 12.5 μL GTPase/GAP buffer (GTPase buffer w/ 1 mM DTT), 10 μM KRas in GTPase/GAP buffer, or 10 μM KRas protein with either L1a, L2, or L8. Running the survey assays on the same plate allowed for direct comparison of the curves, but it necessitated the use of the first row/column on the multi-well plate which introduced some noise to the low ligand concentration points. A 12.5 μL aliquot of a 2×GTP solution (10 μM rGTP in GTPase Buffer) was then added to each well before allowing the plate to shake at RT for two hours (initial GTPase inhibition assay). The GTPase Glo reagent was reconstituted in the GTPase Glo Buffer (4 μL GTPase Glo (500×) reagent, 1996 μL GTPase Glo Buffer, 1 μL 10 mM ADP) immediately before adding 25 μL to each well. Shaking at RT for thirty minutes preceded the addition of 50 μL of the Detection reagent to each well. The plate was covered and incubated for a total of ten minutes before reading the luminescence with a Flexstation 3 plate reader (All wavelengths mode, 500 ms integration time), graphed using Graphpad Prism 7 (Sigmoidal 4PL mode), and an IC50 value was calculated.
For the full GTPase inhibition curve for L2, the above procedure was followed with the change that the incubation with KRas occurred over or four hours rather than two.
Consequently, the best three ligand fractions L1a, L2, and L8 were probed in a functional, solution phase assay for their ability to disrupt the intrinsic GTPase enzymatic activity of KRas protein. This assay measures the enzymatic conversion of GTP to GDP by KRas—a process that can potentially be inhibited. After incubation, an added GTPase Glo™ reagent converts the remaining GTP to ATP, and the ATP is converted into a chemiluminescent signal. Thus, higher chemiluminescence translates to lower KRas enzymatic activity. For the measurements, a fixed [KRas protein] is incubated with varying ligand concentrations. A concentration of 10 μM KRas protein was selected after generating a standard curve for the intrinsic KRas GTPase activity. KRas is a slow acting enzyme, so a KRas/PCC incubation time of two hours was used for the initial survey scans, while four hour incubation times were used for the higher resolution data. […] Thus, the modulation of KRas activity by L2 was recorded with an expanded concentration range.

KRAS [2] = molecular target: T1, KRAS; test: B-RAP surface immunofluorescent assay, PCC ligand KRas EC50; type: binding; conditions: for Avg F635, Full Centroid / Avg F635, Full Lane / avg F635, Left Part Centroid / avg F635, Middle Part Centroid / avg F635, Right Part Centroid: 10 μM KRas well of plate #1, pixel by pixel; for avg F635, Left Part Centroid: left part of centroid; for avg F635, Middle Part Centroid: middle part of centroid; for avg F635, Right Part Centroid: right part of centroid
Method: The barcode patterned microchip surface was partitioned into 16 individual microwells using a pre-fabricated PDMS slab. Individual biotinylated PCC candidates were complexed to specific SAC-DNA conjugates, combined into a cocktail, and then self-assembled, via DNA hybridization, onto designated barcode stripes (FIGS. 2-4). Incubation with a specific concentration of the target protein preceded incubation with a primary capture antibody and then a fluorophore-conjugated secondary detection antibody. During assay execution, each well represents a different target concentration or assay condition. Once developed, the fluorescence of the barcodes is digitized using a GenePix 4400A array scanner, with an excitation laser power optimized to a power level of 40% (60 W), which maximizes detection sensitivity while also minimizing signal saturation. Data extraction occurs using 10 μm radius circles, taken along the length of a barcode stripe. A fluorescence signal representing the average of all the pixels within a given circle is collected. A total of ten circles (data-blocks) are measured along a 180 μm span of the middle portion for each individual barcode lane in a given well. 10 μM KRas protein gave an average F635 of 47,868.7, with a standard deviation of 4154.53. 1 μM KRas protein gave an average F635 of 11437.6, with a standard deviation of 1602.202. 100 nM KRas protein gave an average F635 of 1780.6, with a standard deviation of 236.38. This illustrates the intensity across a stripe compared to the intensity from the data-block extraction. After extraction the data is background corrected. The background signal arises from (a) non-specific binding of the primary and secondary antibodies (independent of [KRas]), but can vary across different barcode stripes), and (b) non-specific binding of KRas protein ([KRas] dependent). Background (a) was assessed by measuring the average signal in the null protein well for each stripe. Background (b) was assessed by measuring the average fluorescence for the dummy ligand (Biotin* probe) that was in each well. The background subtracted data was then graphed in Graphpad Prism 7 and fitted to a sigmoidal curve (Hill coefficient=1).
Measurement of PCC Ligand KRas EC50 with the Barcode Rapid Assay Platform
Protein Incubation Buffer: Tris-buffered saline (TBS)+0.05% Tween20 (TBST)
A pre-fabricated PDMS template was aligned onto the DNA barcode microchip, and the microchip was taped into a 10 cm petri dish. The wells on the platform were wet with 50 μL PBST before filling with blocking buffer and placing into a 37° C. incubator for 1 hr. Concurrently, 40 μL 1% BSA in PBS solutions containing 750 nM of a SAC-DNA conjugate and 3.75 μM of one biotinylated PCC ligand or biotin-A20-Cy3 blank were prepared for each SAC-DNA conjugate. The biotinylated ligands were allowed to complex with the SAC protein for one hour before pooling the SAC-DNA-ligand solutions (final [SAC-DNA-ligand conjugates]=50 nM). The blocking buffer was aspirated and each well was loaded with the SAC-DNA-ligand conjugates cocktail for hybridization with the DNA barcode at 37° C. for one hour. The wells were washed with PBST (3×) before loading serially diluted solutions of KRas protein in protein buffer (0 to 400 μM). After shaking at RT for one hour, the wells were rinsed with PBST (5×), making sure to pipet up/down with the first addition of PB ST. A (100:1) dilution of CST rabbit anti-Ras Ab (#39655) in 1° ab buffer was added to each well before shaking at RT for one hour. After rinsing the wells with PBST (3×), the wells were loaded with a (200:1) dilution of Abcam goat anti-rabbit-Alexafluor 647 linked ab (ab150079) in 2° ab buffer before shaking at RT for one hour. A final rinse of the wells with PBST (3×) proceeded peeling off the PDMS slab from the barcode microchip and dipping the barcode into the following solutions: PBS, (1:1) PBS: MQ H2O, MQ H2O (2×). […]

KRAS [3] = molecular target: T1, KRAS; test: Barcoded rapid assay microchip binding curves of FIG. 6A/6B; conditions: fitted curves of FIG. 6B, Hill coefficient set to 1, triplicate
Method: FIG. 6A is a picture of a barcoded rapid assay microchip (60) following its use for binding curve assays of KRAS to candidate ligands. […] EC50 binding curves of 15 candidate ligands were simultaneously generated against the target protein KRAS. Each microwell (ovals) represents a distinct concentration of KRAS that was added (values are given above each well). All 15 candidate ligands were measured in triplicate in each microwell.
FIG. 6B is a graph of the EC50 binding curves generated from the barcoded rapid assay microchip of FIG. 6A. Images of the barcoded rapid assay microchip were digitized using a fluorescence image scanner and plotted as binding curves (61) for each of the candidate ligands. All binding curves were fitted to Hill functions, with the Hill coefficient set to 1.
A series of peptide ligands that were identified as candidate binders to the protein KRas, using known literature methods, were prepared according to the methods of FIG. 3, and assembled into the individual microwells of the barcoded rapid assay microchip as illustrated in FIG. 4. […] Fluorescence imaging of the individual wells was then used to generate a fluorescence intensity, vs KRAS concentration, for each of the individual candidate ligands. […]

KRAS [4] = molecular target: T1, KRAS; test: Multi-well ELISA, PCC ligand KRas EC50; type: binding; conditions: triplicate, KRas 0→300 μM, Hill coefficient=1
Method: Measurement of PCC Ligand KRas EC50 Using the Multi-Well ELISA Technology
A 96-well Pierce Neutravidin Plate was washed with binding buffer (3×5 minutes at RT) before loading plate with a 1 μM solution of either blank (biotin-PEG5-NHAc) (singly) or biotinylated PCC ligand (in triplicate). The plate incubated for two hours before washing with binding buffer (3×5 minutes). Blocking buffer was added to each well and the plate blocked for one hour before undergoing washing with binding buffer (3×5 minutes). Each well was loaded with either binding buffer or KRas solution (0→300 μM), and the plate was incubated for 30 minutes. Plate washing with binding buffer (3×5 minutes) preceded incubating the plate with a (1000:1) dilution of 1° antibody (ab) rabbit anti-Ras (CST #3965) in ab buffer for thirty minutes. The plate was washed with binding buffer (3×5 minutes), loaded with a (2000:1) dilution of 2° ab goat anti-rabbit, HRP-linked ab (CST #7074) in ab buffer, and incubated for an additional thirty minutes. […] After quenching the enzymatic reaction with 1M H2SO4(aq) (100 μL) the plate was read at λ=450 nm within ten minutes. The data was double background corrected using the ab only absorbance and the dummy ligand absorbance, plotted using Prism GraphPad 7 (Sigmoidal 4PL mode with the Hill coefficient set=1), and an EC50 value was calculated.

[5] = survey assays, 10 μM KRas, two hour incubation

T1 sequence (P01116 1-169 isoform P01116-2): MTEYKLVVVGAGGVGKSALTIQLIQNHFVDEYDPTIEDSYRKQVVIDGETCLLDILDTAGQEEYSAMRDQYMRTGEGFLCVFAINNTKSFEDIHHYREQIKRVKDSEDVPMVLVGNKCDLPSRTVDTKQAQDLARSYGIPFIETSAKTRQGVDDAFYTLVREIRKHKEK

Row | effect on the KRas protein's GTPase activity (KRAS [1]; [5]) | Avg F635, Full Centroid (KRAS [2]) | Avg F635, Full Lane (KRAS [2]) | avg F635, Left Part Centroid (KRAS [2]) | avg F635, Middle Part Centroid (KRAS [2]) | avg F635, Right Part Centroid (KRAS [2]) | EC50 (KRAS [3]) [µM] | EC50 (KRAS [4]) [nM] | EC50 (KRAS [2]; 13-point KRas concentration series, each point in decaplicate, Hill coefficient=1) [µM] | concentration above which ligand switches from weakly activating to strongly inhibiting (KRAS [1]; expanded concentration range, 10 μM KRas) | Hill coefficient of the titration curve (KRAS [1]; full inhibition curve, four-hour incubation) | rGTP hydrolyzed (KRAS [1]; ligand-only (no KRas) wells) | relative potency as inhibitor of KRas GTPase activity (KRAS [1]; [5]) | Structure (SMILES)
1 | inhibitory effect | 20134 | 18768 | 17838 | 20725 | 21906 |  |  |  |  |  |  |  | CCC(C)[C@@H]1NC(=O)CNC(=O)[C@H](Cc2cnc[nH]2)NC(=O)[C@@H](N)Cc2cn(nn2)CCCC[C@@H](C(=O)NCCOCCOCCOCCOCCOCCC(=O)NCCNC(=O)CCCC[C@@H]2SC[C@@H]3NC(=O)N[C@@H]32)NC(=O)CNC(=O)[C@H](C(C)C)NC1=O (single isomer, unassigned) [Ligand L1a, HGIVG]
2 |  | 18391 | 16612 | 14966 | 20262 | 20045 | 6.55 | 2180 ± 2700 | 5.43 ± 1 |  |  |  |  | NC(=O)CC[C@@H]1NC(=O)[C@@H](N)Cc2cn(nn2)CCCC[C@@H](C(=O)NCCOCCOCCOCCOCCOCCC(=O)NCCNC(=O)CCCC[C@@H]2SC[C@@H]3NC(=O)N[C@@H]32)NC(=O)[C@H](Cc2ccc(O)cc2)NC(=O)[C@H](Cc2ccccc2)NC(=O)[C@H](CC(N)=O)NC(=O)[C@H](CC(=O)O)NC1=O (single isomer, unassigned) [Ligand L9a, QDNFY]
3 | inhibitory effect |  |  |  |  |  |  |  |  | above 20 μM | ~10 | Less than 5% | most potent | CC(C)[C@@H]1NC(=O)[C@@H]2CCCN2C(=O)[C@H](C(C)C)NC(=O)CNC(=O)[C@H](CCC(=O)O)NC(=O)[C@@H](N)Cc2cn(nn2)CCCCC(C(=O)NCCOCCOCCOCCOCCOCCC(=O)NCCNC(=O)CCCC[C@@H]2SC[C@@H]3NC(=O)N[C@@H]32)NC1=O (some centres unmarked) [Ligand L2, EGVPV] (H-[Pra]EGVPV[ξLys(N3)][PEG5]-{Ethylenediamine-Biotin}; triazole 1-7)
4 | inhibitory effect |  |  |  |  |  |  |  |  |  |  |  |  | C[C@@H](O)[C@@H]1NC(=O)[C@@H](N)Cc2cn(nn2)CCCC[C@@H](C(=O)NCCOCCOCCOCCOCCOCCC(=O)NCCNC(=O)CCCC[C@@H]2SC[C@@H]3NC(=O)N[C@@H]32)NC(=O)[C@H](Cc2ccc(O)cc2)NC(=O)[C@H](Cc2ccccc2)NC(=O)[C@H](CC(N)=O)NC(=O)[C@H](CC(=O)O)NC1=O [Ligand L8, TDNFY] (H-[Pra]TDNFY[Lys(N3)][PEG5]-{Ethylenediamine-Biotin}; triazole 1-7)
